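Five concentrations, 48 hours, 96-well plates. Abbreviation: GI50, concentration required for 50% inhibition of growth. TGI: total growth inhibition.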 *1 amine or outer side, *2 acyl side, *3 side chain or, on linkers, in order; H or OH if unused. Where a SMILES comes first, the peptide text is derived from it. [ ]: non-standard residue; d: D form. ξ: configuration not given here. X21 = CC[C@@H](C)C(N[*:1])C(=O)[*:2]; ξR = N=C(N)NCCCC(N)C(=O)O; ξI = CCC(C)C(N)C(=O)O; ξL = CC(C)CC(N)C(=O)O; ξK = NCCCCC(N)C(=O)O; ξV = CC(C)C(N)C(=O)O; ξA = CC(N)C(=O)O

As a reminder, the GI50 is the concentration that inhibits growth by half. One may read the TGI as the concentration at which net growth stops.

The assay has as its system MDA-MB-468 breast. Put plainly: DTP human tumour cell line panel, 48 h.
`Clc1ccc(Nc2ccnc(NCCCNc3ccnc4cc(Cl)ccc34)n2)cc1`: the GI50 was 1490 nM and the total growth inhibition concentration (TGI) worked out at 3050 nM.

In the case of `Nc1ccccc1NC(=O)c1ccc(NC(=O)C/C=C/c2cccnc2)cn1`, the GI50 is 982 nM and the TGI came out at 13300 nM.

Regarding `NC(=O)c1ccc2nc3c(n2c1)C(=O)C(=O)c1ccccc1-3`, the GI50 is 587 nM and the TGI came out at 1920 nM.

`C[C@H](N)C(=O)N1C[C@H](CCCB(O)O)[C@](N)(C(=O)O)C1`: the GI50 is greater than 100000 nM and the TGI was greater than 100000 nM.

Turning to `Oc1ccc(C#CCOc2ccccc2)cc1CNCCN(Cc1ccccn1)Cc1ccccn1`, the GI50 is 1730 nM and the TGI was 4170 nM.

Regarding `C=C1C(=O)O[C@H]2[C@H]1CC/C(Cn1cc(-c3cc(C)c(C)cc3C)nn1)=C\CC[C@@]1(C)O[C@@H]21`, the GI50 is 530 nM and the TGI was determined as 2060 nM.

On to `CCOC(=O)Nc1nc2c(C)cccc2s1`, for which the GI50 is 28700 nM and the TGI is greater than 100000 nM.

Consider `Cn1c(=O)c(Oc2ccccc2)cc2cnc(NC3CCOCC3)nc21`, for which the GI50 is greater than 25000 nM and the TGI is greater than 25000 nM.

Regarding `COc1cc(OC)c(C(=O)/C=C/c2cccc(OC(C)=O)c2)cc1CC=C(C)C`, the GI50 is 1890 nM and the TGI was 9720 nM.

Turning to `CN1CCN(c2ccc(C(=O)Nc3cc(-c4cccc(NS(=O)(=O)c5ccccc5)c4)[nH]n3)cc2)CC1`, the GI50 is 4840 nM and the TGI was 14000 nM.

Consider `CCOC(=O)c1cc(C(=O)c2cc(OC)c(OC)c(OC)c2)n2ccccc12`, for which the 50% growth inhibitory concentration (GI50) is 93.9 nM and the concentration for total growth inhibition (TGI) amounted to 89600 nM.

On to `C=C1C(=O)O[C@H]2[C@H]1CC/C(COC(=O)c1ccccc1)=C\CC[C@@]1(C)O[C@@H]21`, for which the GI50 was 464 nM and the TGI came to 2590 nM.

With `Nc1ncnc2c1cnn2Cc1ccc(Cl)cc1`, the GI50 is 44700 nM and the TGI was greater than 100000 nM.

Turning to `NC1CCC(N[C@@H]2C[C@H]2c2ccccc2)CC1` (some centres undefined), the GI50 was greater than 100000 nM and the TGI is greater than 100000 nM.

Regarding `CCC(C)C1NC(=O)C(CC(C)C)NC(=O)C(C)NC(=O)C(C(C)C)NC(=O)C(CCCCN)NC(=O)C(CC(C)C)NC(=O)C(C(C)C)NC(=O)[C@H](C)NC(=O)C(C(C)CC)NC(=O)C(CCCN=C(N)N)NC(=O)C(CCCCN)NC(=O)C(CCCN=C(N)N)NC(=O)C(CCCCN)NC(=O)C([C@H](C)CC)NC(=O)C(CCCCN)NC1=O` (some centres undefined) (cyclo(A[ξV][ξL][ξK][ξV][ξA][ξL][ξI][ξK][X21][ξK][ξR][ξK][ξR][ξI])), the GI50 is 361 nM and the TGI was 1420 nM.

As to `C#C[C@]1(O)CC[C@H]2[C@@H]3CC=C4c5sc(N6CCN(C)CC6)nc5CC[C@]4(C)[C@H]3CC[C@@]21C`, the GI50 was 2260 nM and the TGI is 7600 nM.

In the case of `COc1ccc2c(c1)/C(=C/c1cc(OC)c(OC)c(OC)c1)C(=O)N2C`, the GI50 is 14600 nM and the concentration for total growth inhibition (TGI) is greater than 100000 nM.

For the compound `O=C(COc1cccc(/C=C2\CSc3ccccc3C2=O)c1)c1ccc(Cl)cc1`, the GI50 is 1500 nM and the TGI was found to be 3450 nM.

For the compound `C=C1C[C@@]2(C)C(CC[C@]3(C)C2CC=C2C4CC(C)(C)C[C@@H](OC(=O)/C(C)=C\C)[C@]4(C(=O)O)CC[C@]23C)C(C)(C)C1=O` (some centres undefined), the GI50 was 2020 nM and the TGI was 5910 nM.

Regarding `NC1=Nc2cc(OCCCN3Cc4ccccc4C3)c(OCC3CC3)cc2C12CCCC2`, the GI50 is 1040 nM and the TGI amounted to 2480 nM.

As to `CC(C)Nc1ncc2cc(Oc3ccc(F)cc3F)c(=O)n(C)c2n1`, the GI50 was greater than 23000 nM and the TGI is greater than 25000 nM.

For the compound `COc1ccccc1/C=C/C(=O)/C=C/c1ccccc1OC`, the GI50 was 1270 nM and the TGI came out at 2670 nM.

For the compound `CCCN(CCSSCCNc1nc(N(C)O)nc(N(C)O)n1)c1nc(N(C)O)nc(N(C)O)n1`, the GI50 was 2150 nM and the concentration for total growth inhibition (TGI) worked out at 8860 nM.

In the case of `CCNCCCn1c2c(c3ccc([N+](=O)[O-])cc3c1=O)C(=O)c1cc(OC)cnc1-2`, the GI50 is 41.6 nM and the TGI is 210 nM.

On to `CCSc1nnc(-c2ccc3ccccc3c2O)n1-c1ccc(Cl)cc1`, for which the GI50 was 3590 nM and the TGI is greater than 100000 nM.

Regarding `Cc1cc2cn3c4cccnc4[nH]c(=O)c3c2cc1C`, the GI50 was 1390 nM and the TGI worked out at 2830 nM.

In the case of `CN(C)CCCn1c2nc(=O)[nH]c(=O)c-2nc2cc(Cl)c(Cl)cc21`, the GI50 is 772 nM and the TGI is 2130 nM.

Consider `OCc1ccc(N(CCN2CCCC2)Cc2ccc(F)cc2)cc1Cl`, for which the GI50 is 1200 nM and the TGI is 3280 nM.

For the compound `O=C(Nc1ccccc1)Nc1cccc(Oc2nnc(Cl)c3ccccc23)c1`, the GI50 is 1680 nM and the concentration for total growth inhibition (TGI) was 7580 nM.

`Cc1cn(-c2cc(NC(=O)c3cncc(C#Cc4cnc5ccc(O[C@@H]6CCOC6)nn45)c3)cc(C(F)(F)F)c2)cn1`: the GI50 was 99.8 nM and the TGI was found to be 432 nM.

As to `Cc1ccc(Sc2sc(-c3ccccc3)nc2[P+](c2ccccc2)(c2ccccc2)c2ccccc2)cc1`, the GI50 is 222 nM and the TGI amounted to 674 nM.

Consider `COc1ccc2c(c1)C1(C(=O)N2)C(C#N)=C(c2ccccc2)Nc2c1c(-c1ccccc1)nn2-c1ccccc1` (centres undefined), for which the GI50 was 2930 nM and the TGI was determined as 9050 nM.

In the case of `O=C(Nc1cccc(-n2cc(-c3ccncc3)c(-c3ccc(O)c(Cl)c3)n2)c1)Nc1cccc(C(F)(F)F)c1`, the GI50 was 1850 nM and the concentration for total growth inhibition (TGI) came to 6170 nM.

Take `N#C/C(=C\c1ccc(Br)cc1)n1nnc2ccccc21`: the GI50 is 566 nM and the TGI came out at 2220 nM.

With `COc1ccc(-c2csc(NC(=O)c3cc(O)c(O)c(O)c3)n2)cc1`, the GI50 was 6940 nM and the TGI was found to be 29500 nM.

Turning to `Cc1[nH]nc2c1N=C(c1ccccc1Cl)c1cc([N+](=O)[O-])ccc1N2`, the GI50 is 242 nM and the TGI is greater than 16800 nM.

Take `CNCCCNCCCN1C(=O)c2ccc3c4c(ccc(c24)C1=O)C(=O)N(CCCNCc1ccccc1OC)C3=O`: the GI50 is 1000 nM and the TGI stood at 2770 nM.

The record behind these values is PubChem BioAssay (NCI).
